Assay [1] deals with Fibroblast growth factor receptor 2 (Homo sapiens) (UniProt P21802). As to the kind of experiment: Inhibition of human recombinant FGFR2 at 40 nM in presence of ATP by radiometric assay relative to control.
For assay [2], the target named is Calcium/calmodulin-dependent protein kinase type II subunit alpha (Homo sapiens) (UniProt Q9UQM7). As to the kind of experiment: Inhibition of human recombinant CaMK2a at 500 nM in presence of ATP by radiometric assay relative to control.
The target in assay [3] is Cyclin-dependent kinase 3 (Homo sapiens) (UniProt Q00526). Briefly: Inhibition of human recombinant CDK3 at 500 nM in presence of ATP by radiometric assay relative to control.
For assay [4], the target named is T1, Serine/threonine-protein kinase NLK (Homo sapiens) (UniProt Q9UBE8).
T1 sequence (whole entry): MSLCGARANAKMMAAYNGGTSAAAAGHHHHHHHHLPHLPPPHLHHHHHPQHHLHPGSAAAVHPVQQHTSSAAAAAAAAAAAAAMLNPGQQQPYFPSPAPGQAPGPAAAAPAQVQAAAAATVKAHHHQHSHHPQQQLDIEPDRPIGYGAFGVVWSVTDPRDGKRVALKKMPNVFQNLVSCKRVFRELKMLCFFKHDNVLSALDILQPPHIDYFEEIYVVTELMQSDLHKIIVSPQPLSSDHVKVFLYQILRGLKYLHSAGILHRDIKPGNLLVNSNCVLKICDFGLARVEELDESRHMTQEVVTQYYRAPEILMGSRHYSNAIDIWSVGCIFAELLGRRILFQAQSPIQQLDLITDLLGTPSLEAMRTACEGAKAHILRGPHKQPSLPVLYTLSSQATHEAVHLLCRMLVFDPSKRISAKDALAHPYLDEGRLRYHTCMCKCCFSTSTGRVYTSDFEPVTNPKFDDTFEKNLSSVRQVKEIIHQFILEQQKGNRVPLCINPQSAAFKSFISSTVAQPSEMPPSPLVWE
Briefly: Inhibition of human recombinant NLK at 500 nM in presence of ATP by radiometric assay relative to control.

Assay [5] addresses Protein kinase C gamma type (Homo sapiens) (UniProt P05129). Briefly: Inhibition of human recombinant PKCg at 500 nM in presence of ATP by radiometric assay relative to control.
Assay [6] has as its target T2, Serine/threonine-protein kinase PLK4 (Homo sapiens) (UniProt O00444).
T2 sequence (whole entry): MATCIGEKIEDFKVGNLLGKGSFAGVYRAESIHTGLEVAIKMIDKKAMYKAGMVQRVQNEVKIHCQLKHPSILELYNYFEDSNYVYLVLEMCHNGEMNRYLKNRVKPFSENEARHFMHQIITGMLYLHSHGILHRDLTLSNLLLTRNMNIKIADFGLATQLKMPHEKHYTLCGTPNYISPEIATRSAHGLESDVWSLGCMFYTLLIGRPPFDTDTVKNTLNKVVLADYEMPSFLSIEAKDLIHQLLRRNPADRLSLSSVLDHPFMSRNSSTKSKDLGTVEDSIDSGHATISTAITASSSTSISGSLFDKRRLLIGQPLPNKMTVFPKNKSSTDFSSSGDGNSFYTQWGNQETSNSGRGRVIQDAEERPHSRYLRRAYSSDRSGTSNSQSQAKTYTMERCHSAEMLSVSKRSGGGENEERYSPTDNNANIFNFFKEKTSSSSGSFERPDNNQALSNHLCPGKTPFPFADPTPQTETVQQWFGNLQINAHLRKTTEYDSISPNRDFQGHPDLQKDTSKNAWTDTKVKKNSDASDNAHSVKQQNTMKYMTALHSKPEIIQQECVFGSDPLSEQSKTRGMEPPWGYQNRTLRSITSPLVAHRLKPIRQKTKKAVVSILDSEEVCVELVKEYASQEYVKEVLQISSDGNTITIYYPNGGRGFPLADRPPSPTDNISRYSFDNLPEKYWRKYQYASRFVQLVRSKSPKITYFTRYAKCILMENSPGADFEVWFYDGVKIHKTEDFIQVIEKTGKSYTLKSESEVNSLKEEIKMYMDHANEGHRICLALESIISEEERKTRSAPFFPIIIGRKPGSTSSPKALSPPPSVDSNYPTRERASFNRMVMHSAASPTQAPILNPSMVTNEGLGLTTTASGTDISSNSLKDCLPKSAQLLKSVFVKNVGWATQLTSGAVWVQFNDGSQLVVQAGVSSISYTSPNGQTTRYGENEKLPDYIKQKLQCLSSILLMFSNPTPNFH
As to the kind of experiment: Inhibition of human recombinant PLK4 at 500 nM related to control ULK1.

Assay [7] deals with T3, Serine/threonine-protein kinase ULK3 (Homo sapiens) (UniProt Q6PHR2).
T3 sequence (whole entry): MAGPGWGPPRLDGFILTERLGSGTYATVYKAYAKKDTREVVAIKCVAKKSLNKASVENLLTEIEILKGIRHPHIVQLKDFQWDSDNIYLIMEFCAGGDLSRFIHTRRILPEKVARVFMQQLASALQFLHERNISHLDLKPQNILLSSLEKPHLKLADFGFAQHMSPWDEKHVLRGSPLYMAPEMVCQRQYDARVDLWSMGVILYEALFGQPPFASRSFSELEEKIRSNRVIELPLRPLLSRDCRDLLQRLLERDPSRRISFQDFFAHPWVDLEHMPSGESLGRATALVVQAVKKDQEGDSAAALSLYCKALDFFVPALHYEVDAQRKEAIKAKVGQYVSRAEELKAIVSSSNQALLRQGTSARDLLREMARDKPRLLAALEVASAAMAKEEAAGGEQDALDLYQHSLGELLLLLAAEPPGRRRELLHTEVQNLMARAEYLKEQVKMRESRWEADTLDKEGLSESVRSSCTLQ
Briefly: Inhibition of human recombinant ULK3 at 15 nM in presence of ATP by radiometric assay relative to control.

For the next assay, the species on record is Homo sapiens. As to the kind of experiment: Inhibition of human recombinant ABL at 15 nM related to control ULK1.
The target in assay [8] is Serine/threonine-protein kinase B-raf (Homo sapiens) (UniProt P15056). As to the kind of experiment: Inhibition of human recombinant BRAF at 15 nM related to control ULK1.
Assay [9] has as its target T4, Serine/threonine-protein kinase STK11 (Homo sapiens) (UniProt Q15831).
T4 sequence (whole entry): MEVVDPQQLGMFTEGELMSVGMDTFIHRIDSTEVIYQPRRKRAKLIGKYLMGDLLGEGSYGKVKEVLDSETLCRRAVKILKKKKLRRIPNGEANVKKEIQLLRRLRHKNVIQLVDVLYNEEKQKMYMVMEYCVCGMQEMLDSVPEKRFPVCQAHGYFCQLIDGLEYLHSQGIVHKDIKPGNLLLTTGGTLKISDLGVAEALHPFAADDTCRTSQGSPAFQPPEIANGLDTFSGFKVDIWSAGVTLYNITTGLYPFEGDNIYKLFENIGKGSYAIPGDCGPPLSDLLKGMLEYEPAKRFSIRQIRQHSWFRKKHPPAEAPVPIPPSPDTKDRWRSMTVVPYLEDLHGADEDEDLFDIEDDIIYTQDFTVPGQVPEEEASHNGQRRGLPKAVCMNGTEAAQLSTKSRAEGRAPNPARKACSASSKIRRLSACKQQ
As to the kind of experiment: Inhibition of human recombinant LKB1 at 15 nM related to control ULK1.

The source of these data is ChEMBL document CHEMBL5653631, “A Potent and Selective ULK1 Inhibitor Suppresses Autophagy and Sensitizes Cancer Cells to Nutrient Stress” (iScience, 2018).

The inhibition is the drop in the measured response relative to a control, in per cent.

Chain of Serine/threonine-protein kinase B-raf (Homo sapiens) (P15056 whole entry): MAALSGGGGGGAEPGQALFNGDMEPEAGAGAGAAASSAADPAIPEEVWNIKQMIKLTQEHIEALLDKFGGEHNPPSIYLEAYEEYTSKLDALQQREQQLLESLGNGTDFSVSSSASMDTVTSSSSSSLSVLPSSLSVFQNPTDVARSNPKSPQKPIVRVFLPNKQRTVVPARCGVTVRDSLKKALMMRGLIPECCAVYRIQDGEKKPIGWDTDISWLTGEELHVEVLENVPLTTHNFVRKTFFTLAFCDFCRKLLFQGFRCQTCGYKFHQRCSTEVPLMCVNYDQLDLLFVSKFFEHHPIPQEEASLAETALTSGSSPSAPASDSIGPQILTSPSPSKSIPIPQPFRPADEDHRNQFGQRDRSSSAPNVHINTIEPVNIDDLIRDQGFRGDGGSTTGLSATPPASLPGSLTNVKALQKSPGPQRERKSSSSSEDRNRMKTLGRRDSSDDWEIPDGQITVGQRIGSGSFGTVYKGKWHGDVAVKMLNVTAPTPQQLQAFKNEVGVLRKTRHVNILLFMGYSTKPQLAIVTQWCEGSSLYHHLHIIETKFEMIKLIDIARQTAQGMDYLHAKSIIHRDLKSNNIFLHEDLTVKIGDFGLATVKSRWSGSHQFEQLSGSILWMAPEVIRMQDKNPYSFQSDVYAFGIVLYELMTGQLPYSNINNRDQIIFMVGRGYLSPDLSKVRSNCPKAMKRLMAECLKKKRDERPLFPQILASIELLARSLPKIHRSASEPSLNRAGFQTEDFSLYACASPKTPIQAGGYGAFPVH
Chain of Calcium/calmodulin-dependent protein kinase type II subunit alpha (Homo sapiens) (Q9UQM7 whole entry): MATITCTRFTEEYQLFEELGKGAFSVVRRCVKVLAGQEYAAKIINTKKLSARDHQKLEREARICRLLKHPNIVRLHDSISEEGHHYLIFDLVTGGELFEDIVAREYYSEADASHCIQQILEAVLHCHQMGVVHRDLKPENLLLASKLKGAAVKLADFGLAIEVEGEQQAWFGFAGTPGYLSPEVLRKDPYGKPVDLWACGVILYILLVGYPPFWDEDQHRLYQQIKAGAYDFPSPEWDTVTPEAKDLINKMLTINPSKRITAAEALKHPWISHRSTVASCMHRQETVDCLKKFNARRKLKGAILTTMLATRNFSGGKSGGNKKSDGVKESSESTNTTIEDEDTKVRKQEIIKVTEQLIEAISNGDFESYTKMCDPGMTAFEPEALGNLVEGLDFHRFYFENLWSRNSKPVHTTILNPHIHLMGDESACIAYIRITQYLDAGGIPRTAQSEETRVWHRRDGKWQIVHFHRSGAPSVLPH
Chain of Fibroblast growth factor receptor 2 (Homo sapiens) (P21802 22-821 limits assumed): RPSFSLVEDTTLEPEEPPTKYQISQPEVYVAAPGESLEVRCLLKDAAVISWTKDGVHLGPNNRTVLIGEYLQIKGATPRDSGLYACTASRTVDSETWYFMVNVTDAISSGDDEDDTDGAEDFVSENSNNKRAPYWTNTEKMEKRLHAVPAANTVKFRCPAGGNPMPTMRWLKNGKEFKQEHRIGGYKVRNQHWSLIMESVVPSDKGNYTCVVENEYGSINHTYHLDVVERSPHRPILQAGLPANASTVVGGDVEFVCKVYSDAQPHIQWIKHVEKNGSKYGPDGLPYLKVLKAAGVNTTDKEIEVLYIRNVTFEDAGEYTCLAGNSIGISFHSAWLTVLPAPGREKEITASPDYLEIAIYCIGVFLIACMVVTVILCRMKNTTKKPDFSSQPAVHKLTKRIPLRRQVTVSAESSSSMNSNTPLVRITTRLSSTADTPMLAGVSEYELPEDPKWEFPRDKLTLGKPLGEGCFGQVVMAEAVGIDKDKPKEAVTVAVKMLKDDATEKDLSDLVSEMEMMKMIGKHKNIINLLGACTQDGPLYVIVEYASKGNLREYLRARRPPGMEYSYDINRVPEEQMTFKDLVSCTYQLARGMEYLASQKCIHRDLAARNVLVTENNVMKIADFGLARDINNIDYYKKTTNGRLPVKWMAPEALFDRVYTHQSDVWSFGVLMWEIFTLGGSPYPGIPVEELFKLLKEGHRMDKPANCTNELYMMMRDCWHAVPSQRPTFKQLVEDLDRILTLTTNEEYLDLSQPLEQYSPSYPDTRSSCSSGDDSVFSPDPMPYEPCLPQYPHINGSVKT
Chain of Cyclin-dependent kinase 3 (Homo sapiens) (Q00526 whole entry, looked up): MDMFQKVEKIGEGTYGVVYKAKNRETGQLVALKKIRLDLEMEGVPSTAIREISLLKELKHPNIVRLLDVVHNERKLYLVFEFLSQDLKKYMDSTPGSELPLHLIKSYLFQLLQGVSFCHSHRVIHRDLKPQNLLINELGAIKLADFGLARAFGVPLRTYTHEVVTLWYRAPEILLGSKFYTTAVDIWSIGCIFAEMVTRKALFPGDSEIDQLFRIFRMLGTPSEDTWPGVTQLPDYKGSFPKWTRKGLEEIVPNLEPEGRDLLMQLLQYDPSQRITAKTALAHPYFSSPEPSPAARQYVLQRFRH

Regarding `O=C(N[C@@H](C1CC1)C(F)(F)F)c1cc(-c2cnn3cc(-c4ccc(F)cc4)cnc23)cs1`, the inhibition in assay [1] was 0%.

Turning to `CNC(=O)c1ccccc1Oc1nc(Nc2cc(OC)c(OC)c(OC)c2)ncc1Br`, the inhibition in assay [2] was 0%; in assay [3], 1%; in assay [4], 4%; in assay [5], 9%. Besides, the fold change (FC) in assay [6] was determined as 0.62.

`CC(C)[C@H](NC(=O)c1cc(-c2cnn3cc(-c4ccc(OCCN5CCCCC5)cc4)cnc23)cs1)C(F)(F)F`: in [7], the inhibition is 40%. Further, the fold change (FC) came to 0.93 in the assay filed under Homo sapiens, 0.13 in assay [8] and 0 in assay [9].
